Results on 1 compound are retold here after patent publication US8877773B2, “Methods for treating chronic obstructive pulmonary disease” (Indiana University Research and Technology Corporation, priority 2009, dated 2014).

Entries after “also recorded” stand apart in the source; their conditions may differ.

Common to all, as to type: in vivo, rat
The subject of series [1] is panic-prone (1-AG treated) rats. The experiment in a line: Defensive burying (defensive shock) test after NaLac challenge in panic-prone rats. The note with it: 1-AG+NaLac rats. The protocol:
The defensive burying test is a validated test of experimental anxiety and defensive-like behavior in rats. For four consecutive days before defensive burying test (days 3, 4, 5 and 6 post 1-AG onset), rats were acclimated to the testing apparatus by placing them for 10 min in the testing cage (a polycarbonate rat housing cage, 30.5 cm width×30.5 cm height×61 cm length) with 2.5 cm of bedding covering the floor and a small hole centered on a short dimension of the cage 2.5 cm above the bedding to accommodate the deactivated shock probe. The shock probe was 1 cm in diameter and extended 6 cm into the cage. Along the entire length of the exposed probe, 2 un-insulated wires were wrapped in parallel (not touching) so that the rat could not touch the probe without getting a shock. […] The shock intensity was set at 0.7 mA for the entire duration of testing so that the rat received a shock whenever the prod was contacted with its forepaws or snout. […] Behavioral assessments were made using software (ODLog Macropod Software for Windows, version 2.5.2) with different keystrokes coupled to each defensive behavior to accurately measure incidence and duration of each. The repertoire of behavioral reactions during a defensive burying test is well delineated and catalogued in rats. These behaviors include: 1) burying behavior, defined as duration spent pushing, shoveling, flicking and digging sawdust towards and around the prod with rapid movements of the snout and forepaws; 2) Freezing, defined as immobility with the body motionless; 3) probe exploration, defined as time spent on half of cage with probe; 4) rearing, defined as raising the body on the hind limbs in a vertical position; 5) ambulations, defined as number of times rat crossed from side of cage with probe to other; and also 5) grooming, defined as face washing, scratching, tail biting and licking of the body.
On day 1 adult male Sprague-Dawley rats (n=3/group) were anaesthetized and had osmotic minipumps (previously filled with 1-AG) stereotaxically implanted unilaterally into the DMH/PeF. […] Behavioral assessments were made using software (ODLog Macropod Software for Windows, version 2.5.2) with different keystrokes coupled to each defensive behavior to accurately measure incidence and duration of each.

For series [2], the system named is rats exposed to hypercarbic gas. Nature of the series: Hypercarbic gas (20% CO2) challenge: MAP, HR, locomotor activity, fecal pellets. The procedure:
Prior to surgery, rats were anesthetised with a nose cone connected to an isoflurane system (MGX Research Machine; Vetamic, Rossville Ind., USA) during the surgery. […] Briefly, cardiovascular responses were measured by a femoral arterial line connected to a telemetric probe that contained a pressure transducer [Cat. no. C50-PXT, Data Sciences International (DSI), St. Paul, Minn., USA]. DSI dataquest software was used to monitor and record MAP and HR. For the duration of each experiment, MAP and HR were recorded continuously in freely moving conscious rats. Data were analyzed during the period 5 min prior to, 5 min during, and 5 min following the gas challenges. The data reported are changes in HR and MAP, expressed in 1 min bins, relative to the average of the baseline measurement (t−5 min to t−1 min) from each rat.
Flow cages (12 in. width×12 in. height×24 in. length) were custom built using Plexiglas®. When the lid of the cage was latched, gases could only enter the cage through an inlet connector (for the gas infusion) and could only exit the cage through an outlet connector. The gas flow into the cages was controlled using a 2-stage regulator (Praxair, Inc., Danbury, Conn., USA) at a pressure of 0.6 Bar.
On day 1, rats (n=3/group) were selected from their home cages and placed into experimental cages containing atmospheric air. […] Fecal pellets were counted in cages at the end of gas challenges. In order to assess anxiety-like behavioural responses following exposure to hypercarbic gas, rats were immediately transferred to an adjacent room and place in the center square of an open-field box for a 5 min test. On day 2, the experiment was repeated, but the treatments were reversed for each rat. For instance, rats that received atmospheric gas challenge on day 1 received the hypercapnic gas challenge on day 2.
All rats received hypercarbic gas infusions as described in detail in Experiment 11. […] Blood pressure, heart rate, locomotor activity, number of fecal pellets and anxiety-like behavior were assessed as described in Experiment 11.
Dependent variables for analyses of cardiovascular responses (HR, MAP) and locomotor activity were analysed using a […], using gas infusion as the between-subjects factor and time as a within-subjects factor. Dependent variables for the number of fecal pellets and open-field anxiety test (i.e., time spent in each section, line crossings) were analysed using a one-way ANOVA with gas infusion in Experiment 11 and drug treatment in Experiment 12 as the between-subjects factors. […] Within-subjects comparisons were also made on the MAP and HR measures using a Dunnett's test for multiple comparisons with a single control using the 5 Min baseline measurement as the control. The alpha level was set at 0.05 in all cases.

Series [3] relates to panic-prone (1-AG treated) rats. Nature of the series: Sodium lactate (NaLac) challenge in panic-prone rats: open field test. The settings on record: 30 mg/kg i.p. 30 min prior to NaLac, experiment 5. The procedure: The open-field arena covered an area of 0.9 m×0.9 m, with 0.4 m high walls. The open-field arena was divided into a 6×6 grid of equally-sized squares using black tape (36 total squares) with 4 squares forming the centre; 12 squares forming the middle perimeter; and 20 squares forming the outer perimeter. The test started by placing a rat in the centre. The behavior of each rat in the open-field arena was recorded on video and scored afterwards by an observer blind to the experimental treatment of each rat. Time spent in each region of the open-field was recorded.
In experiments 4-6, rats were made panic vulnerable with 1-AG. […] In experiment 5, baseline in an open field (OF) behavior test of anxiety was assessed (n=8) prior to 1-AG infusions. […] In experiment 7, control rats (no 1-AG or NaLac treatment) were assessed in a SI test.
All adult male Sprague-Dawley rats were anesthetized and surgically implanted with telemetrical probes to measure cardiovascular activity prior to and during lactate infusions. After a 3 day recovery, baseline open field behavior was assessed (n=8), then rats were anaesthetized and had osmotic minipumps (previously filled with 1-AG) stereotaxically implanted unilaterally into the DMH. […] Immediately following the lactate challenge, the rats were assessed for anxiety using the open field test.

Setting [4] is: 20% CO2, 30 mg/kg i.p. 30 min prior.

Regarding `Cc1nc2ccc(NC(=O)Nc3ccnc4cccnc34)cc2o1` [SB334867, N-(2-Methyl-6-benzoxazolyl)-N′-1,5-naphthyridin-4-yl urea], in series [1] (30 mg/kg i.p.), the “grooming in defensive burying test” value is “No differences were detected”, the “rearing in defensive burying test” value is given as “No differences were detected” and the “time spent near probe in defensive burying test” value is given as “No differences were detected”. Further, the “NaLac-induced freezing (immobility) in defensive burying test” value in series [1] (30 mg/kg i.p. 30 min prior, 30 mg/kg) was “completely blocked; also recorded: blocks”. Besides, in series [1] (30 mg/kg i.p., sedation indicator, 30 mg/kg), the “number of times crossed line dividing halves of test cage (mid-line crossings)” value is reported as “No differences were detected”. Also, in series [2] (20% CO2/normoxic gas 5 min, 30 mg/kg i.p. 30 min prior), the “hypercarbic gas-induced changes in MAP (pressor response)” value is listed as “attenuated”. The hypercarbic gas-induced bradycardia entry in series [2] (20% CO2/normoxic gas 5 min, 30 mg/kg i.p. 30 min prior, 30 mg/kg) was “without altering; also recorded: had no effect”. For the same compound, in series [2] (setting [4]), the “hypercarbic gas-induced increase in numbers of fecal pellets” value is reported as “attenuated” and the “locomotor responses over time prior to, during or after hypercarbic gas” value is on record as “Neither the vehicle nor SB334867 treated rats had a change in locomotor responses”. Further, in series [2] (baseline, 30 mg/kg i.p., vs vehicle-treated rats), the “locomotor activity prior to hypercarbic gas infusion” value is recorded as “higher”. Besides, the “anxiety-like responses (decreased time spent in center of open field) after NaLac challenge” value in series [3] was “attenuated”.
